Reference: patent US12122756B2, “Biflavone compound against I-type herpes simplex virus, and preparation method therefor and use thereof” (priority 2022, dated 2024)

Tested on: HSV-I
Assay: Action mode: inhibitory effect on HSV-I adsorption (CPE, CCK-8)
Assay type: cell-based, Herpes simplex virus type I
Method: (1) The inhibitory effect of drugs on HSV-I adsorption: Vero cells were seeded in a 96-well plate and grew into a monolayer, before pretreatment with different concentrations of samples. Then, HSV-I virus solution was added at 100 μl/well, followed by incubation for 1 hour. Finally, the cell maintenance solution was replaced, and the cells were further cultured. After 72 hours, the effect on the adsorption of virus was determined using the CCK-8 method.

In the case of `COc1c(O)c(Cc2c(O)c(OC)c(O)c3c(=O)c(-c4ccc(O)c(S(=O)(=O)[O-])c4)coc23)c2occ(-c3ccc(O)c(S(=O)(=O)[O-])c3)c(=O)c2c1O.[Na+].[Na+]` [Compound 2, 8,8″-methylene-di-(sodiumtectorigenin-5′-sulphonate)], the “Effect on viral adsorption: OD value” (5.97 μg/ml, n = 6) is reported as 0.24 ± 0.03, the “Effect on viral adsorption: OD value” (11.94 μg/ml, n = 6) is reported as 0.23 ± 0.05 and the “Effect on viral adsorption: OD value” (23.88 μg/ml, n = 6) is reported as 0.24 ± 0.04. The “Effect on viral adsorption: OD value” (47.45 μg/ml, n = 6) was 0.25 ± 0.04, the “Effect on viral adsorption: OD value” (95.50 μg/ml, n = 6) was 0.26 ± 0.06 and the “Effect on viral adsorption: OD value” (191.00 μg/ml, n = 6) was 0.25 ± 0.06. For the same molecule, the “Effect on viral adsorption: OD value” (382.00 μg/ml, n = 6) was 0.24 ± 0.06, the “inhibitory effect on viral adsorption (in words)” value (CPE method) was “almost no inhibitory effect” and the inhibition at 5.97 µg/mL (Human alphaherpesvirus 1, 5.97 μg/ml, n = 6, read-out: Effect on viral adsorption: Inhibition rate (%)) was 4.97%. It also gave an inhibition at 11.94 µg/mL (Human alphaherpesvirus 1, 11.94 μg/ml, n = 6, read-out: Effect on viral adsorption: Inhibition rate (%)) of 4.83%, an inhibition at 23.88 µg/mL (Human alphaherpesvirus 1, 23.88 μg/ml, n = 6, read-out: Effect on viral adsorption: Inhibition rate (%)) of 5.22% and an inhibition at 47.45 µg/mL (Human alphaherpesvirus 1, 47.45 μg/ml, n = 6, read-out: Effect on viral adsorption: Inhibition rate (%)) of 6.97%. It also gave an inhibition at 95.5 µg/mL (Human alphaherpesvirus 1, 95.50 μg/ml, n = 6, read-out: Effect on viral adsorption: Inhibition rate (%)) of 7.33%, an inhibition at 191 µg/mL (Human alphaherpesvirus 1, 191.00 μg/ml, n = 6, read-out: Effect on viral adsorption: Inhibition rate (%)) of 6.16% and an inhibition at 382 µg/mL (Human alphaherpesvirus 1, 382.00 μg/ml, n = 6, read-out: Effect on viral adsorption: Inhibition rate (%)) of 5.39%.
